The record followed here is ChEMBL document CHEMBL3217709, “SAR mining and its application to the design of TRPA1 antagonists” (Medchemcomm, 2012).

Molecules are shown by their SMILES.

One experiment addresses Coagulation factor X (Homo sapiens, UniProt P00742). Description: Inhibition of factor-10a (unknown origin).
Experiment [1] deals with Transient receptor potential cation channel subfamily A member 1 (Homo sapiens, UniProt O75762). Description: Antagonist activity at TRPA1 (unknown origin).
Chain of Transient receptor potential cation channel subfamily A member 1 (O75762 whole entry): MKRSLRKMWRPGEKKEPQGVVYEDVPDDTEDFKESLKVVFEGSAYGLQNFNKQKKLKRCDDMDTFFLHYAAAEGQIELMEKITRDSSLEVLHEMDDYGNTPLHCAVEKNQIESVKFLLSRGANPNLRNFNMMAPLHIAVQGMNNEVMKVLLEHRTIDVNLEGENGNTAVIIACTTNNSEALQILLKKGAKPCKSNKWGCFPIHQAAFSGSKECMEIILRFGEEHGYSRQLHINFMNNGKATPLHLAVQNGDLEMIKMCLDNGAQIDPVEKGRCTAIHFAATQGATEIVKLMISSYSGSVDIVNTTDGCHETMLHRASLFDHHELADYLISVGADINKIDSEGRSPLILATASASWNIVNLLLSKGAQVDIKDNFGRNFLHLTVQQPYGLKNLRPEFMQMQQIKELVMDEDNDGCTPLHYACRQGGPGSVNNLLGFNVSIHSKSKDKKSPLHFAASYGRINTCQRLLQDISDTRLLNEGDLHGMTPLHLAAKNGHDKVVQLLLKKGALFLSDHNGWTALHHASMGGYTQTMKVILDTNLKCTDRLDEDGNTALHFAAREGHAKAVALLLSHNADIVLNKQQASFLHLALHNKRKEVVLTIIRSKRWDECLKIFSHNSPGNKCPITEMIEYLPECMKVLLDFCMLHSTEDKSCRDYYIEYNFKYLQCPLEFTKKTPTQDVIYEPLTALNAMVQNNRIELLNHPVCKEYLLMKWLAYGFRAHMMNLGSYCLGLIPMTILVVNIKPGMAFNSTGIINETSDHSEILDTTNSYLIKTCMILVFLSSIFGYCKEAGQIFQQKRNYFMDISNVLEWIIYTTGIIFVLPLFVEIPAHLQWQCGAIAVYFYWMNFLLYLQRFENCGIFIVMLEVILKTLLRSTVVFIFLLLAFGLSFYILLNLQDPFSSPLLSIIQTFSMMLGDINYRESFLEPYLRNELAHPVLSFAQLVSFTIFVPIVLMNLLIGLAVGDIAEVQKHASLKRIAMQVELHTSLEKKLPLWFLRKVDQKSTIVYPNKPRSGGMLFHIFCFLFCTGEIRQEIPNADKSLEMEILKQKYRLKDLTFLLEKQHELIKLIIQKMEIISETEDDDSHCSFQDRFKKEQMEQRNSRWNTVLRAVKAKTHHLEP
In the next experiment the target is T1, Adenosine receptor A2b (Homo sapiens, UniProt P29275).
T1 sequence (P29275 whole entry): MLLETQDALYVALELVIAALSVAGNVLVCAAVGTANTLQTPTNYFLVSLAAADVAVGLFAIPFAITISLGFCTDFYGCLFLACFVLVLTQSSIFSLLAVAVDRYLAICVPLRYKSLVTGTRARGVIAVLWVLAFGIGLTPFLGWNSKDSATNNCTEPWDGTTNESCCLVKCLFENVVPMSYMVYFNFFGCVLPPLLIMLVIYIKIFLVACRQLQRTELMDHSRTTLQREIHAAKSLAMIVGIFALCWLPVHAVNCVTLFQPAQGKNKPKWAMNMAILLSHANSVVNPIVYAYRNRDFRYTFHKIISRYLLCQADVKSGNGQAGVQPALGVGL
Description: Antagonist activity at adenosine A2B receptor (unknown origin).

In experiment [2] the target is 5-hydroxytryptamine receptor 4 (Homo sapiens, UniProt Q13639). Description: Antagonist activity at […] receptor (unknown origin).
Chain of 5-hydroxytryptamine receptor 4 (Q13639 whole entry): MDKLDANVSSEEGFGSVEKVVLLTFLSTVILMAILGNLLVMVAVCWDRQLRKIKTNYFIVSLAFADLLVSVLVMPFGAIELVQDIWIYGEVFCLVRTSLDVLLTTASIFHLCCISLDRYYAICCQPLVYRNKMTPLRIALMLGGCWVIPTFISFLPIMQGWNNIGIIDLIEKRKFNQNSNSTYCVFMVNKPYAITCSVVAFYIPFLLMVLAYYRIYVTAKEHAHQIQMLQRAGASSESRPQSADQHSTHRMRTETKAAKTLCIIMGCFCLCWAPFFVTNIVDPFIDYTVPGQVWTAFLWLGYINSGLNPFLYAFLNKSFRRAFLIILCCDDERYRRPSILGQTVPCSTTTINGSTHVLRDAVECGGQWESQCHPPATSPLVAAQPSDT

Chain of Coagulation factor X (P00742 41-179 limits assumed): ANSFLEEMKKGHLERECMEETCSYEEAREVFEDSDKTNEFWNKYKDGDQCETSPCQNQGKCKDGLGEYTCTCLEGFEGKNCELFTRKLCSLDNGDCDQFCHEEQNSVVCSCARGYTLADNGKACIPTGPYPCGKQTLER
Chain of Coagulation factor X (P00742 235-488 limits assumed): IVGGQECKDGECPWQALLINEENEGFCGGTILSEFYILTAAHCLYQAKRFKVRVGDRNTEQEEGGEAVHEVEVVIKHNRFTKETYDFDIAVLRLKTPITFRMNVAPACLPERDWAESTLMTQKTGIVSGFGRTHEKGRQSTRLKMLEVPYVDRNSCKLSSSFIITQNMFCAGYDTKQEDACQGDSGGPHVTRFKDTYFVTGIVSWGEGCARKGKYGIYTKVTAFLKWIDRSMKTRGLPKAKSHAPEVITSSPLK

The term IC50 denotes the concentration that gives 50% inhibition. Lower therefore signals inhibition by little substance. `Cc1cc(C(=O)Nc2ccc(-c3ccccc3C(F)(F)F)cc2)n(-c2cccc(C(=N)N)c2)n1` came in with an IC50 against Coagulation factor X of 0.04 nM.

On to `COc1cc(CNC(=O)c2cn3c(=O)n(Cc4ccccc4)c(=O)c(C)c3s2)ccn1`, for which the IC50 in experiment [1] is 1740 nM.

In experiment [1], `Cc1c(=O)n(Cc2ccccc2)c(=O)n2cc(C(=O)N3CCC(Oc4cccc(Cl)c4)CC3)sc12` yielded a concentration for half-maximal inhibition (IC50) of 200 nM.

Take `COc1cc(N)c(Cl)cc1C(=O)OCCN1CCN(c2cccc(Cl)c2)CC1`: the IC50 against Adenosine receptor A2b is 2080 nM; in experiment [2] it was 162 nM.

With `Cc1c(=O)n(Cc2ccccc2)c(=O)n2cc(C(=O)N3CC[C@H](Oc4ccccc4C(F)(F)F)C3)sc12`, the IC50 in experiment [1] was 150 nM.

Regarding `COc1cccc(N2CCN(CCOC(=O)c3cc(Cl)c(N)cc3OC)CC2)c1`, the IC50 at Adenosine receptor A2b was found to be 50 nM; in experiment [2], 3 nM.

Regarding `Cc1ccc(CNC(=O)c2cn3c(=O)n(Cc4ccccc4)c(=O)c(C)c3s2)cc1`, the IC50 in experiment [1] worked out at 1370 nM.

Compound `COc1cc(N)c(Cl)cc1C(=O)OCCN1CCN(c2ccccc2-c2cnccn2)CC1` registered an IC50 in experiment [2] of 1.4 nM.

In experiment [1], `Cc1c(=O)n(Cc2ccccc2)c(=O)n2cc(C(=O)NCc3ccccc3)sc12` yielded an IC50 of 1880 nM.

`Cc1c(=O)n(Cc2ccccc2)c(=O)n2cc(C(=O)NCc3ccc(Cl)cc3)sc12`: 2230 nM corresponded to half-maximal inhibition in experiment [1] (IC50).

For the compound `Cc1c(=O)n(Cc2ccccc2)c(=O)n2cc(C(=O)NCc3ccc4nsnc4c3)sc12`, the midpoint of inhibition in experiment [1], the IC50, lay at 1460 nM.

The compound `Cc1c(=O)n(Cc2ccccc2)c(=O)n2cc(C(=O)NCc3ccncc3)sc12` came in with an IC50 in experiment [1] of 1170 nM.

As to `COc1ccc(N2CCN(CCOC(=O)c3cc(Cl)c(N)cc3OC)CC2)cc1`, the IC50 at Adenosine receptor A2b turned out to be 250 nM; in experiment [2] it was 18 nM.

As for `Cc1c(=O)n(Cc2ccccc2)c(=O)n2cc(C(=O)NCc3cccnc3)sc12`, in experiment [1], the IC50 turned out to be 1570 nM.

Turning to `Cc1c(=O)n(Cc2ccccc2)c(=O)n2cc(C(=O)N3CC[C@@H](Oc4ccccc4C(F)(F)F)C3)sc12`, the IC50 in experiment [1] amounted to 100 nM.

With `Cc1c(=O)n(Cc2ccccc2)c(=O)n2cc(C(=O)NCc3ccccn3)sc12`, half-maximal inhibition in experiment [1] (IC50) was put at 3490 nM.

With `COc1cc(N)c(Cl)cc1C(=O)OCCN1CCN(c2ccccc2OC)CC1`, the IC50 on Adenosine receptor A2b came to 127 nM; in experiment [2], 64 nM.

For `Cc1c(=O)n(Cc2ccccc2)c(=O)n2cc(C(=O)NCc3ccc4[nH]ccc4c3)sc12`, the IC50 in experiment [1] turned out to be 680 nM.

`Cc1c(=O)n(Cc2ccccc2)c(=O)n2cc(C(=O)N3CCC(Oc4ccccc4F)CC3)sc12`: in experiment [1], the IC50 worked out at 200 nM.

For the compound `COc1cc(N)c(Cl)cc1C(=O)OCCN1CCN(c2ccc(Cl)cc2)CC1`, the IC50 on Adenosine receptor A2b came to 3660 nM; in experiment [2], 715 nM.

Regarding `COc1cc(N)c(Cl)cc1C(=O)OCCN1CCN(c2ccccc2Cl)CC1`, the figures for the IC50 (at Adenosine receptor A2b; in experiment [2]) were 5830 nM and 296 nM, respectively.

The compound `Cc1c(=O)n(Cc2ccccc2)c(=O)n2cc(C(=O)N3CCC(c4ccccc4F)CC3)sc12` returned an IC50 in experiment [1] of 400 nM.

With `Cc1cc(C(=O)Nc2ccc(-c3ccccc3S(C)(=O)=O)cc2)n(-c2cccc(C(=N)N)c2)n1`, on Coagulation factor X, the IC50 amounted to 0.008 nM.

Turning to `Cc1c(=O)n(Cc2ccccc2)c(=O)n2cc(C(=O)NCc3ccc(F)cc3)sc12`, half-maximal inhibition in experiment [1] (IC50) required 2230 nM.

Turning to `COc1cc(N)c(Cl)cc1C(=O)OCCN1CCN(c2ccccc2F)CC1`, the figures for the IC50 (against Adenosine receptor A2b; in experiment [2]) were 645 nM and 17 nM, respectively.
